In general, clearance refers to the volume of plasma or blood freed of the substance per unit of time. A high value points to a high capacity for elimination. As usually defined, the pEC50 is −log10 of the EC50, conventionally taken in molar units. As usually defined, the bioavailability is dose-corrected exposure relative to a reference, in per cent. A higher bioavailability goes with good availability. By pIC50 is commonly meant the IC50 on a negative log10 scale, so that one unit is a factor of ten. Read a low pIC50 as a high IC50. A word on the AUC: it is concentration integrated over time. Higher therefore signals high exposure.

The record followed here is ChEMBL document CHEMBL5143714, “Discovery of BMS-986339, a Pharmacologically Differentiated Farnesoid X Receptor Agonist for the Treatment of Nonalcoholic Steatohepatitis” (J Med Chem, 2022).

Structures are written as SMILES. pEC50, pIC50: −log10 of the molar value. A value given as a limit tells only on which side of the number the result lay.

Series [1] can be described thus: Clearance in C57BL6 mouse at 1 mg/kg, iv. Type of series: ADME, organism-based. To be noted: in vivo.
The target in series [2] is T1, Bile acid receptor (Homo sapiens, UniProt Q96RI1).
T1 sequence (Q96RI1 whole entry): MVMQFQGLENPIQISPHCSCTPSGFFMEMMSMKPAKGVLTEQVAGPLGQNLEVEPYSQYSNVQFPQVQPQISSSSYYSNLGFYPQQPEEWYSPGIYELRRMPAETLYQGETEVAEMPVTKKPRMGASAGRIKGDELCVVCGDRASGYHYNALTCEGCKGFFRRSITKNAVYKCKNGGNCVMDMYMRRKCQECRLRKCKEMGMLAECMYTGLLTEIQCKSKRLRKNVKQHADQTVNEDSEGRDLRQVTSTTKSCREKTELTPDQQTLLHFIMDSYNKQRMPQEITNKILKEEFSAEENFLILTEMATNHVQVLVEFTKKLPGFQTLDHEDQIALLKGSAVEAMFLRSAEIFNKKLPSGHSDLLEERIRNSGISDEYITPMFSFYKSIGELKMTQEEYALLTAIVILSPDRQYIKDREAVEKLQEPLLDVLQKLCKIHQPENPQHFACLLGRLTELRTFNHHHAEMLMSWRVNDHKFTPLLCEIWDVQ
Briefly: Agonist activity at LBD fused human FXR in HEK293 cells incubated for 30 min by envision plate reader method. Format: cell-based.

Series [3] can be described thus: Oral bioavailability in C57BL6 mouse at 5 mg/kg. To be noted: in vivo. Type of series: ADME, organism-based.
Series [4] deals with Cytochrome P450 2C19 (Homo sapiens, UniProt P33261). Briefly: Inhibition of CYP2C19 in human liver microsomes using fluorogenic substrate preincubated for 15 min followed by NADPH addition measured after 2 hrs by fluorescence based assay. Format: ADME, Microsome. A general note: Microsomes from liver hold many membrane-bound enzymes, among them those of drug oxidation.
Cytochrome P450 2C19, sequence (P33261 whole entry): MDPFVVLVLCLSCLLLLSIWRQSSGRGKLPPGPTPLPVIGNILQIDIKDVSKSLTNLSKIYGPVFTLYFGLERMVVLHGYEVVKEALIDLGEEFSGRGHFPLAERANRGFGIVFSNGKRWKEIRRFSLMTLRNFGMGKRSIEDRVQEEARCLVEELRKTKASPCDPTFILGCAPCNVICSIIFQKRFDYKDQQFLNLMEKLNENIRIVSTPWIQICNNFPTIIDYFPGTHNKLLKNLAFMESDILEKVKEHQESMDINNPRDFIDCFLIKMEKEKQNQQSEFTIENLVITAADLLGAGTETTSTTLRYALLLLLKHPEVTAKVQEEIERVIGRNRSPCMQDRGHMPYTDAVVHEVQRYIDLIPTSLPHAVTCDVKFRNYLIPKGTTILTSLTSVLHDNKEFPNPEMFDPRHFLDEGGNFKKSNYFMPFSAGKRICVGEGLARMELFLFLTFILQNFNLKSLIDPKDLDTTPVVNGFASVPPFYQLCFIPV
The nature of series [5]: AUC (total) in C57BL6 mouse at 1 mg/kg, iv. Type of series: ADME, organism-based. Also noted: dose 1 mg/kg, route iv. To be noted: in vivo.

Regarding `CC(C)(O)c1ccc(-c2cccc(N(CC34CCC(c5noc(C(C)(C)F)n5)(CC3)CC4)C(=O)[C@H]3C[C@](O)(C(F)(F)F)C3)c2)cc1`, the clearance in series [1] came to 0.096 L/h/kg. In series [2], the negative logarithm of the EC50 (pEC50) was 7.38. Moreover, in series [3], the bioavailability was 69%. Moreover, the negative-log IC50 (pIC50) in series [4] is < 4.70. In series [5], this compound gave an AUC of 16.4 µM·h.
